pEC50: −log10 of the molar value. The source made the active and inactive calls. No cut-off for these calls is given here.
Assays:
SARS-CoV-2 [1] = test: microbe, parasite or virus in culture; details: Severe acute respiratory syndrome coronavirus 2, Delta, Vero C1008
SARS-CoV-2 [2] = test: microbe, parasite or virus in culture; details: Severe acute respiratory syndrome coronavirus 2, Delta, Vero C1008; remark: listed apart in the source
SARS-CoV-2 [3] = test: Antiviral activity against SARS-CoV-2 omicron BA.5 variant infected in K18-hACE2 transgenic mouse model assessed as increase in body weight at 50 mg/kg, po pre-infected with virus for 2 hrs followed by twice daily compound administration and measured on day 4 in presence of nirmatrelvir; format: functional, organism-based; details: Severe acute respiratory syndrome coronavirus 2, time 4.0 day
SARS-CoV-2 [4] = test: Antiviral activity against SARS-CoV-2 omicron BA.5 variant infected in K18-hACE2 transgenic mouse model assessed as increase in body weight at 200 mg/kg, po pre-infected with virus for 2 hrs followed by twice daily compound administration and measured on day 4 in presence of ritonavir; format: functional, organism-based; details: Severe acute respiratory syndrome coronavirus 2, time 4.0 day
SARS-CoV-2 [5] = test: Antiviral activity against SARS-CoV-2 omicron BA.5 variant infected in K18-hACE2 transgenic mouse model assessed as log reduction in viral copies in lungs at 200 mg/kg, po pre-infected with virus for 2 hrs followed by twice daily compound administration and measured on day 4; format: functional, Severe acute respiratory syndrome coronavirus 2; details: time 4 day
SARS-CoV-2 [6] = test: Antiviral activity against SARS-CoV-2 omicron BA.5 variant infected in K18-hACE2 transgenic mouse model assessed as log reduction in viral copies in lungs at 200 mg/kg, po pre-infected with virus for 2 hrs followed by twice daily compound administration and measured on day 2; format: functional, Severe acute respiratory syndrome coronavirus 2; details: time 2 day
SARS-CoV-2 [7] = test: Antiviral activity against SARS-CoV-2 omicron BA.5 variant infected in K18-hACE2 transgenic mouse model assessed as inhibition of viral replication at 100 mg/kg, po pre-infected with virus for 2 hrs followed by twice daily compound administration and measured on day 2 to 4; format: functional, organism-based; details: Severe acute respiratory syndrome coronavirus 2, time 2-4 day
SARS-CoV-2 [8] = test: Antiviral activity against SARS-CoV-2 omicron BA.5 variant infected in K18-hACE2 transgenic mouse model assessed as increase in body weight at 100 to 200 mg/kg, po pre-infected with virus for 2 hrs followed by twice daily compound administration and measured on day 4; format: functional, organism-based; details: Severe acute respiratory syndrome coronavirus 2, dose 100-200 mg/kg, time 4.0 day

Row | Structure (SMILES) | pEC50 (SARS-CoV-2 [2]) | further results
1 | O=C(c1cc(=O)[nH]c2ccccc12)N1CCN(c2ccc(Cl)c(Cl)c2)CC1CN1CCOCC1 (centres undefined) | 5.14 | pEC50 (SARS-CoV-2 [1]): 5.14
2 | CNC(=O)c1cc(C2CC2)cc([N+](=O)[O-])c1N[C@@H]1CCCC[C@@H]1NC(=O)c1cc(=O)[nH]c2ccccc12 | 5.57 | –
3 | COc1ccc2[nH]c(=O)cc(C(=O)N[C@H]3CCCC[C@H]3Nc3c(C(=O)N4CCOCC4)cc(C4CC4)cc3[N+](=O)[O-])c2c1 | 5.11 | –
4 | CC(C)c1nc(CN(C)C(=O)N[C@H](C(=O)N[C@@H](Cc2ccccc2)C[C@H](O)[C@H](Cc2ccccc2)NC(=O)OCc2cncs2)C(C)C)cs1 | – | Activity (SARS-CoV-2 [3]): Active
5 | O=C(N[C@H]1CCCC[C@H]1Nc1c(C(=O)N2CCOCC2)cc(Br)cc1[N+](=O)[O-])c1cc(=O)[nH]c2ccccc12 | 5.47 | –
6 | CNC(=O)c1cc(Br)cc([N+](=O)[O-])c1N[C@@H]1CCCC[C@@H]1NC(=O)c1cc(=O)[nH]c2c(F)cccc12 | 6.46 | –
7 | CNC(=O)c1cc(Br)cc([N+](=O)[O-])c1N[C@@H]1CCCC[C@@H]1NC(=O)c1cc(=O)[nH]c2ccccc12 | 6.07 | –
8 | O=C(N[C@H]1CCCC[C@H]1Nc1c(C(=O)N2CCOCC2)cc(C2CC2)cc1[N+](=O)[O-])c1cc(=O)[nH]c2ccccc12 | 5.35 | –
9 | O=C(NCCCC(F)(F)F)C1CN(c2ccc(Cl)c(Cl)c2)CCN1C(=O)c1cc(=O)[nH]c2ccccc12 (centres undefined) | 5.40 | –
10 | CNC(=O)c1cc(Br)cc([N+](=O)[O-])c1N[C@@H]1CCCC[C@@H]1NC(=O)c1cc(=O)[nH]c2ccc(F)cc12 | 5.61 | –
11 | O=C(N[C@H]1CCCC[C@H]1Nc1c(C(=O)N2CCOCC2)cc(Br)cc1[N+](=O)[O-])c1cc(=O)[nH]c2c(F)cccc12 | 6.44 | –
12 | CC(C)(C)[C@H](NC(=O)C(F)(F)F)C(=O)N1C[C@H]2[C@@H]([C@H]1C(=O)N[C@H](C#N)C[C@@H]1CCNC1=O)C2(C)C | – | Activity (SARS-CoV-2 [4]): Active
13 | CN1CCN(C(=O)c2cc(Br)cc([N+](=O)[O-])c2N[C@@H]2CCCC[C@@H]2NC(=O)c2cc(=O)[nH]c3c(F)cccc23)CC1 | 6.57 | log(activity) (SARS-CoV-2 [5]): 1; log(activity) (SARS-CoV-2 [6]): 1.5; Activity (SARS-CoV-2 [7]): Active; Activity (SARS-CoV-2 [8]): Active
14 | O=C(NCCC(F)(F)F)C1CN(c2ccc(Cl)c(Cl)c2)CCN1C(=O)c1cc(=O)[nH]c2ccccc12 (centres undefined) | 4.75 | –

Reference: ChEMBL document CHEMBL5523769, “Discovery of Novel Nonpeptidic and Noncovalent Small Molecule 3CLpro Inhibitors as anti-SARS-CoV-2 Drug Candidate” (J Med Chem, 2024)
